Source: PubChem BioAssay (NCI)
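Each compound was tested at five concentrations against cells in 96-well plates for 48 hours. GI50 is the concentration that inhibits growth by half. At the TGI there is no net growth.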

Columns and labels:
Test in all cases: NCI-60 cell line screen, 48 h
[1] = system: 786-0 renal
[2] = system: SK-MEL-2 melanoma
[3] = system: SK-MEL-28 melanoma
[4] = system: ACHN renal
[5] = system: HCC-2998 colon
[6] = system: HL-60(TB) leukemia
[7] = system: SNB-19 CNS
[8] = system: LOX IMVI melanoma
[9] = system: MOLT-4 leukemia
[10] = system: SF-539 CNS

SMILES	TGI [1] [µM]	TGI [2] [µM]	TGI [3] [µM]	TGI [4] [µM]	TGI [5] [µM]	TGI [6] [µM]	TGI [7] [µM]	TGI [8] [µM]	TGI [9] [µM]	TGI [10] [µM]	GI50 [10] [µM]	GI50 [1] [µM]	GI50 [2] [µM]	GI50 [3] [µM]	GI50 [4] [µM]	GI50 [6] [µM]	GI50 [7] [µM]	GI50 [8] [µM]	GI50 [9] [µM]	GI50 [5] [µM]
O=CCCCC(Sc1ccccc1)Sc1ccccc1	46	42.7	32	38.4	84	78.3	> 100	26.6	38.9	–	–	–	–	–	–	–	–	–	–	–
CCCCCCCCCCCCCCCCCC(=O)NCC(COP(=O)(O)O)OCC (stereo not given)	> 100	> 100	> 100	–	> 100	> 100	90.2	–	> 100	> 100	–	–	–	–	–	–	–	–	–	–
C/C(CC(=O)Nc1cccc([N+](=O)[O-])c1)=N\NC(=O)CC#N	> 100	> 100	> 100	–	> 100	> 100	–	> 100	> 100	> 100	–	–	–	–	–	–	–	–	–	–
O=C(O)CCc1nc(-c2ccccc2-n2cccc2)no1	> 100	> 100	> 100	> 100	> 100	–	> 100	> 100	–	> 100	–	–	–	–	–	–	–	–	–	–
NS(=O)(=O)c1ccc(NC(=O)c2cccc(NC3=C(Cl)C(=O)N(Cc4ccccc4)C3=O)c2)cc1	> 100	33.2	42.9	33.2	–	6.01	> 100	16.1	7.99	26.7	11.3	21.5	10.3	20	14.7	2.02	27.1	3.54	2.09	–
CC(=O)c1c2c(cc3c1CC1(C3)Cc3cc4c(c(C(=O)O)c3C1)CCC4)CCC2 (stereo not given)	> 100	–	> 100	> 100	> 100	35.6	> 100	> 100	71.3	59.6	–	–	–	–	–	–	–	–	–	–
CCCOC(=O)C1C2CCC(O2)C1C(=O)O (stereo not given)	> 100	> 100	> 100	> 100	–	> 100	> 100	> 100	> 100	–	–	–	–	–	–	–	–	–	–	–
CC1=C(N2CC2)C(=O)c2ccccc2C1=O	3.47	4.06	4.33	1.07	–	17.1	6.27	4.98	16.3	5.91	–	–	–	–	–	–	–	–	–	–
CNC(c1ccncc1)C(NC)c1ccncc1 (stereo not given)	> 100	> 100	> 100	> 100	> 100	> 100	> 100	> 100	> 100	–	–	–	–	–	–	–	–	–	–	–
O=C1C=Cc2ncccc2C1=O	29.1	39.2	48.1	50.6	> 61.6	36.1	> 100	26.9	–	40.5	–	–	–	–	–	–	–	–	–	–
CC(=O)[C-](C(C)=O)c1ccccc1.CC(=O)[C-](C(C)=O)c1ccccc1.CC(=O)[C-](C(C)=O)c1ccccc1.[Cl-].[Zr+4]	> 100	> 100	–	–	–	> 100	> 100	> 100	> 100	> 100	86.7	38.7	> 100	–	–	> 100	82.9	> 100	> 100	–
CCN(CC)Cc1cc(Nc2c3ccccc3nc3cc(Cl)ccc23)ccc1O	2.46	3.36	3.2	2.97	–	–	5.27	–	53.5	4.58	2.19	1.21	1.75	1.79	1.47	–	2.04	–	2.01	–
C/C(=N/O)c1ccc(Nc2cc(-n3ccnc3)c3ccccc3n2)cc1	> 100	> 100	> 100	90.8	> 100	–	> 100	–	18.5	> 100	11.5	4.83	38.5	70.4	18.6	–	75.3	–	2.95	48
O=c1[nH]cc(C(F)(C(F)(F)F)C(F)(F)F)c(=O)[nH]1	> 100	> 100	> 100	> 100	–	> 100	> 100	> 100	> 100	> 100	–	–	–	–	–	–	–	–	–	–
C#CCOCn1cnc2ncnc(N)c21	> 100	> 100	> 100	> 100	> 100	–	> 100	> 100	> 100	> 100	–	–	–	–	–	–	–	–	–	–
CC(C)(C)Sc1nnc(SC(C)(C)C)c2c(=O)[nH]nc(SC(C)(C)C)c12	22.3	–	–	–	23.9	16.1	23.8	24.2	15.7	22.6	–	–	–	–	–	–	–	–	–	–
COc1cccc2c1cc1c3c(cc4c(c32)OCO4)C(=O)N1	33.3	44.2	67.2	15.4	> 100	27.8	> 100	23.3	–	21.2	4.8	7.15	16.5	13.1	3.76	7.59	6.37	4.27	–	7.82
CCCCCCCCCCSC(=N)N	19.5	3.27	14.1	9.33	3.31	–	19.2	9.37	–	22.1	10.2	4.92	1.68	3.67	2.82	–	5.17	2.76	–	1.72
C/C(=N\NS(=O)(=O)c1ccc([N+](=O)[O-])cc1)c1ccc[n+]([O-])n1	15.6	3.84	–	> 21.7	22.3	> 22.6	99.1	2.15	11.5	4.94	–	–	–	–	–	–	–	–	–	–
COc1ccc(NC(=O)C2C(=O)N(c3ccc(OC)cc3)C(=O)/C2=N\NC(N)=O)cc1 (stereo not given)	49.3	> 100	> 100	82.5	> 100	–	> 100	> 100	–	30.8	–	–	–	–	–	–	–	–	–	–
